{"source": "patent US8802597B2", "about": "“Herbicidal pyrimidines” (E I du Pont de Nemours and Company, priority 2003, dated 2014)", "type_in_all_cases": "in vivo", "key": {"[1]": {"tested_on": "johnsongrass (Sorghum halepense)", "experiment": "Test G pre/postemergence", "settings": "Preemergence", "how_it_was_run": "(§1)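 Test chemicals in non-phytotoxic solvent with surfactant applied preemergence to sown seeds or nutlets and postemergence to plants 2–18 cm tall (1- to 4-leaf stage). Greenhouse-held 12–21 days, then visually rated against untreated controls on a 0 (no effect) to 100 (complete control) scale.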"}, "[2]": {"tested_on": "downy bromegrass (Bromus tectorum)", "experiment": "Test G pre/postemergence", "settings": "Preemergence", "how_it_was_run": "as §1"}, "[3]": {"tested_on": "Italian ryegrass (Lolium multiflorum)", "experiment": "Test G pre/postemergence", "settings": "Preemergence", "how_it_was_run": "as §1"}, "[4]": {"tested_on": "tropical spiderwort (Commelina benghalensis)", "experiment": "Test G pre/postemergence", "settings": "Preemergence", "how_it_was_run": "as §1"}, "[5]": {"tested_on": "catchweed bedstraw (galium; Galium aparine)", "experiment": "Test D pre/postemergence", "settings": "scale 0 to 100 (100 = complete control)", "how_it_was_run": "(§2)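 Weed and cereal species treated preemergence, or postemergence at 2–18 cm (1- to 4-leaf stage), with test chemicals in non-phytotoxic solvent with surfactant. Kept in controlled growth environment 15 to 25 days, then rated visually against controls on a 0 (no effect) to 100 (complete control) scale.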"}, "[6]": {"tested_on": "common chickweed (Stellaria media)", "experiment": "Test D pre/postemergence", "settings": "scale 0 to 100 (100 = complete control)", "how_it_was_run": "as §2"}, "[7]": {"tested_on": "kochia (Kochia scoparia)", "experiment": "Test D pre/postemergence", "settings": "scale 0 to 100 (100 = complete control)", "how_it_was_run": "as §2"}, "[8]": {"tested_on": "Russian thistle (Salsola kali)", "experiment": "Test D pre/postemergence", "settings": "scale 0 to 100 (100 = complete control)", "how_it_was_run": "as §2"}, "[9]": {"tested_on": "lambsquarters (Chenopodium album)", "experiment": "Test D pre/postemergence", "settings": "scale 0 to 100 (100 = complete control)", "how_it_was_run": "as §2"}, "[10]": {"tested_on": "wild mustard (Sinapis arvensis)", "experiment": "Test D pre/postemergence", "settings": "scale 0 to 100 (100 = complete control)", "how_it_was_run": "as §2"}, "[11]": {"tested_on": "wheat (Triticum aestivum)", "experiment": "Test D pre/postemergence", "settings": "scale 0 to 100 (100 = complete control)", "how_it_was_run": "as §2"}, "[12]": {"tested_on": "wild buckwheat (Polygonum convolvulus)", "experiment": "Test D pre/postemergence", "settings": "scale 0 to 100 (100 = complete control)", "how_it_was_run": "as §2"}, "[13]": {"tested_on": "pigweed (Amaranthus retroflexus)", "experiment": "Test D pre/postemergence", "settings": "scale 0 to 100 (100 = complete control)", "how_it_was_run": "as §2"}}, "data": [{"smiles": "CCOC(=O)c1nc(C2CC2)nc(N)c1Cl", "note": "[Compound 4, ethyl 6-amino-5-chloro-2-cyclopropyl-4-pyrimidinecarboxylate]", "values": [{"measurement": "Plant response rating, Johnsongrass", "setting": "[1]; 62 g ai/ha, scale 0-100", "value": 60}, {"measurement": "Plant response rating, Johnsongrass", "setting": "[1]; 125 g ai/ha, scale 0-100", "value": 75}, {"measurement": "Plant response rating, Johnsongrass", "setting": "[1]; 250 g ai/ha, scale 0-100", "value": 85}, {"measurement": "Plant response rating, Johnsongrass", "setting": "[1]; 500 g ai/ha, scale 0 to 100", "value": 95}, {"measurement": "Plant response rating, Bromegrass, Downy", "setting": "[2]; 62 g ai/ha, scale 0-100", "value": 30}, {"measurement": "Plant response rating, Bromegrass, Downy", "setting": "[2]; 125 g ai/ha, scale 0-100", "value": 70}, {"measurement": "Plant response rating, Bromegrass, Downy", "setting": "[2]; 250 g ai/ha, scale 0-100", "value": 100}, {"measurement": "Plant response rating, Bromegrass, Downy", "setting": "[2]; 500 g ai/ha, scale 0 to 100", "value": 100}, {"measurement": "Plant response rating, Ryegrass, Italian", "setting": "[3]; 62 g ai/ha, scale 0-100", "value": 30}, {"measurement": "Plant response rating, Ryegrass, Italian", "setting": "[3]; 125 g ai/ha, scale 0-100", "value": 60}, {"measurement": "Plant response rating, Ryegrass, Italian", "setting": "[3]; 250 g ai/ha, scale 0-100", "value": 100}, {"measurement": "Plant response rating, Ryegrass, Italian", "setting": "[3]; 500 g ai/ha, scale 0 to 100", "value": 100}, {"measurement": "Plant response rating, Spiderwort", "setting": "[4]; 62 g ai/ha, scale 0-100", "value": 100}, {"measurement": "Plant response rating, Spiderwort", "setting": "[4]; 125 g ai/ha, scale 0-100", "value": 100}, {"measurement": "Plant response rating, Spiderwort", "setting": "[4]; 250 g ai/ha, scale 0-100", "value": 100}, {"measurement": "Plant response rating, Spiderwort", "setting": "[4]; 500 g ai/ha, scale 0 to 100", "value": 100}, {"measurement": "Plant response rating, Galium", "setting": "[5]; Postemergence, 16 g ai/ha", "value": 100}, {"measurement": "Plant response rating, Galium", "setting": "[5]; Postemergence, 31 g ai/ha", "value": 100}, {"measurement": "Plant response rating, Galium", "setting": "[5]; Postemergence, 62 g ai/ha", "value": 100}, {"measurement": "Plant response rating, Galium", "setting": "[5]; Postemergence, 125 g ai/ha", "value": 100}, {"measurement": "Plant response rating, Galium", "setting": "[5]; Preemergence, 16 g ai/ha", "value": 90}, {"measurement": "Plant response rating, Galium", "setting": "[5]; Preemergence, 31 g ai/ha", "value": 100}, {"measurement": "Plant response rating, Galium", "setting": "[5]; Preemergence, 62 g ai/ha", "value": 100}, {"measurement": "Plant response rating, Galium", "setting": "[5]; Preemergence, 125 g ai/ha", "value": 100}, {"measurement": "Plant response rating, Chickweed", "setting": "[6]; Postemergence, 16 g ai/ha", "value": 65}, {"measurement": "Plant response rating, Chickweed", "setting": "[6]; Postemergence, 31 g ai/ha", "value": 100}, {"measurement": "Plant response rating, Chickweed", "setting": "[6]; Postemergence, 62 g ai/ha", "value": 100}, {"measurement": "Plant response rating, Chickweed", "setting": "[6]; Postemergence, 125 g ai/ha", "value": 100}, {"measurement": "Plant response rating, Chickweed", "setting": "[6]; Preemergence, 16 g ai/ha", "value": 65}, {"measurement": "Plant response rating, Chickweed", "setting": "[6]; Preemergence, 31 g ai/ha", "value": 70}, {"measurement": "Plant response rating, Chickweed", "setting": "[6]; Preemergence, 62 g ai/ha", "value": 85}, {"measurement": "Plant response rating, Chickweed", "setting": "[6]; Preemergence, 125 g ai/ha", "value": 100}, {"measurement": "Plant response rating, Kochia", "setting": "[7]; Postemergence, 16 g ai/ha", "value": 85}, {"measurement": "Plant response rating, Kochia", "setting": "[7]; Postemergence, 31 g ai/ha", "value": 100}, {"measurement": "Plant response rating, Kochia", "setting": "[7]; Postemergence, 62 g ai/ha", "value": 100}, {"measurement": "Plant response rating, Kochia", "setting": "[7]; Postemergence, 125 g ai/ha", "value": 100}, {"measurement": "Plant response rating, Kochia", "setting": "[7]; Preemergence, 16 g ai/ha", "value": 85}, {"measurement": "Plant response rating, Kochia", "setting": "[7]; Preemergence, 31 g ai/ha", "value": 100}, {"measurement": "Plant response rating, Kochia", "setting": "[7]; Preemergence, 62 g ai/ha", "value": 100}, {"measurement": "Plant response rating, Kochia", "setting": "[7]; Preemergence, 125 g ai/ha", "value": 100}, {"measurement": "Plant response rating, Russian Thistle", "setting": "[8]; Postemergence, 16 g ai/ha", "value": 80}, {"measurement": "Plant response rating, Russian Thistle", "setting": "[8]; Postemergence, 31 g ai/ha", "value": 90}, {"measurement": "Plant response rating, Russian Thistle", "setting": "[8]; Postemergence, 62 g ai/ha", "value": 100}, {"measurement": "Plant response rating, Russian Thistle", "setting": "[8]; Postemergence, 125 g ai/ha", "value": 100}, {"measurement": "Plant response rating, Russian Thistle", "setting": "[8]; Preemergence, 16 g ai/ha", "value": 90}, {"measurement": "Plant response rating, Russian Thistle", "setting": "[8]; Preemergence, 31 g ai/ha", "value": 100}, {"measurement": "Plant response rating, Russian Thistle", "setting": "[8]; Preemergence, 62 g ai/ha", "value": 100}, {"measurement": "Plant response rating, Russian Thistle", "setting": "[8]; Preemergence, 125 g ai/ha", "value": 100}, {"measurement": "Plant response rating, Lambsquarters", "setting": "[9]; Postemergence, 16 g ai/ha", "value": 95}, {"measurement": "Plant response rating, Lambsquarters", "setting": "[9]; Postemergence, 31 g ai/ha", "value": 100}, {"measurement": "Plant response rating, Lambsquarters", "setting": "[9]; Postemergence, 62 g ai/ha", "value": 100}, {"measurement": "Plant response rating, Lambsquarters", "setting": "[9]; Postemergence, 125 g ai/ha", "value": 100}, {"measurement": "Plant response rating, Lambsquarters", "setting": "[9]; Preemergence, 16 g ai/ha", "value": 70}, {"measurement": "Plant response rating, Lambsquarters", "setting": "[9]; Preemergence, 31 g ai/ha", "value": 80}, {"measurement": "Plant response rating, Lambsquarters", "setting": "[9]; Preemergence, 62 g ai/ha", "value": 100}, {"measurement": "Plant response rating, Lambsquarters", "setting": "[9]; Preemergence, 125 g ai/ha", "value": 100}, {"measurement": "Plant response rating, Mustard, Wild", "setting": "[10]; Postemergence, 16 g ai/ha", "value": 65}, {"measurement": "Plant response rating, Mustard, Wild", "setting": "[10]; Postemergence, 31 g ai/ha", "value": 65}, {"measurement": "Plant response rating, Mustard, Wild", "setting": "[10]; Postemergence, 62 g ai/ha", "value": 75}, {"measurement": "Plant response rating, Mustard, Wild", "setting": "[10]; Postemergence, 125 g ai/ha", "value": 90}, {"measurement": "Plant response rating, Mustard, Wild", "setting": "[10]; Preemergence, 16 g ai/ha", "value": 65}, {"measurement": "Plant response rating, Mustard, Wild", "setting": "[10]; Preemergence, 31 g ai/ha", "value": 85}, {"measurement": "Plant response rating, Mustard, Wild", "setting": "[10]; Preemergence, 62 g ai/ha", "value": 85}, {"measurement": "Plant response rating, Mustard, Wild", "setting": "[10]; Preemergence, 125 g ai/ha", "value": 85}, {"measurement": "Plant response rating, Wheat", "setting": "[11]; Postemergence, 16 g ai/ha", "value": 80}, {"measurement": "Plant response rating, Wheat", "setting": "[11]; Postemergence, 31 g ai/ha", "value": 85}, {"measurement": "Plant response rating, Wheat", "setting": "[11]; Postemergence, 62 g ai/ha", "value": 100}, {"measurement": "Plant response rating, Wheat", "setting": "[11]; Postemergence, 125 g ai/ha", "value": 100}, {"measurement": "Plant response rating, Wheat", "setting": "[11]; Preemergence, 31 g ai/ha", "value": 70}, {"measurement": "Plant response rating, Wheat", "setting": "[11]; Preemergence, 62 g ai/ha", "value": 80}, {"measurement": "Plant response rating, Wheat", "setting": "[11]; Preemergence, 125 g ai/ha", "value": 80}, {"measurement": "Plant response rating, Buckwheat, Wild", "setting": "[12]; Postemergence, 16 g ai/ha", "value": 80}, {"measurement": "Plant response rating, Buckwheat, Wild", "setting": "[12]; Postemergence, 31 g ai/ha", "value": 85}, {"measurement": "Plant response rating, Buckwheat, Wild", "setting": "[12]; Postemergence, 62 g ai/ha", "value": 100}, {"measurement": "Plant response rating, Buckwheat, Wild", "setting": "[12]; Postemergence, 125 g ai/ha", "value": 100}, {"measurement": "Plant response rating, Buckwheat, Wild", "setting": "[12]; Preemergence, 16 g ai/ha", "value": 60}, {"measurement": "Plant response rating, Buckwheat, Wild", "setting": "[12]; Preemergence, 31 g ai/ha", "value": 80}, {"measurement": "Plant response rating, Buckwheat, Wild", "setting": "[12]; Preemergence, 62 g ai/ha", "value": 100}, {"measurement": "Plant response rating, Buckwheat, Wild", "setting": "[12]; Preemergence, 125 g ai/ha", "value": 100}, {"measurement": "Plant response rating, Pigweed", "setting": "[13]; Postemergence, 16 g ai/ha", "value": 85}, {"measurement": "Plant response rating, Pigweed", "setting": "[13]; Postemergence, 31 g ai/ha", "value": 100}, {"measurement": "Plant response rating, Pigweed", "setting": "[13]; Postemergence, 62 g ai/ha", "value": 100}, {"measurement": "Plant response rating, Pigweed", "setting": "[13]; Postemergence, 125 g ai/ha", "value": 100}, {"measurement": "Plant response rating, Pigweed", "setting": "[13]; Preemergence, 16 g ai/ha", "value": 70}, {"measurement": "Plant response rating, Pigweed", "setting": "[13]; Preemergence, 31 g ai/ha", "value": 90}, {"measurement": "Plant response rating, Pigweed", "setting": "[13]; Preemergence, 62 g ai/ha", "value": 100}, {"measurement": "Plant response rating, Pigweed", "setting": "[13]; Preemergence, 125 g ai/ha", "value": 100}]}]}
